Source: patent US9358228B2, “Therapeutic combinations of netupitant and palonosetron” (Helsinn Healthcare SA, priority 2011, dated 2016)

Experiments:
Type in all cases: in vivo, rat
[1] = tested on: SNL and Sham rats; assay: Rotarod motor performance; details: FIG. 3, 0.03, 0.3 and 3 mg/kg
Text: The rotarod was also used to assess potential effects on motor performance of Netupitant and Palonosetron. Acceleration of the rotarod was set to increase from 0 to 20 revolutions per minute over the period of one minute. Due to initial, non-linear acceleration, rats were placed on the rotarod locked at a speed of 8 revolutions per minute. The rotarod was then set to accelerate and the latency to fall from the rotarod was timed from this point.

[2] = tested on: acetic acid (AA)-induced somatic hypersensitivity in a rodent model; assay: Somatic sensitivity assessment: von Frey hind paw withdrawal after intracolonic acetic acid; details: rats; for inhibition of AA-induced somatic hypersensitivity, agent alone: oral, effective dose not given (0.001-1 mg/kg dosed); for effect of 0.001 mg/kg dose alone on somatic hypersensitivity: 0.001 mg/kg oral, agent alone
Experimental: Induction of Acute Visceral and Somatic Hypersensitivity: Visceral and somatic hypersensitivity were induced by infusing dilute (1.5 ml at 0.6%) acetic acid (AA) into the rat colon via a catheter (Intramedic PE 90 tubing) inserted via the anus to the level of the mid-colon. Within 60 mins colonic and somatic hypersensitivity was evident. Somatic Sensitivity Assessment: Von Frey filaments were used to determine the level of somatic sensitivity in all animals receiving intracolonic infusion of AA. The Von Frey instrument measures the level of somatic sensitivity by recording the minimal force required to elicit hind paw withdrawal. The animals were placed in a mesh-bottomed Von Frey caging apparatus and a nylon filament was steadily pushed against the rat's foot pad until withdrawal of the hind paw. The force in grams which elicited hind paw withdrawal was then recorded. Test Compounds: Following surgery, rats were pre-dosed with Palonosetron (1-hr pre-dose), Netupitant (2-hr pre-dose) or methyl cellulose vehicle. Palonosetron and Netupitant were supplied by […] Healthcare Inc. and were stored at 4° C. until prepared for dosing as a suspension in 1% methyl cellulose solution. The drug suspensions were prepared so that each rat received an oral dosing volume of 0.5 ml per 100 g body weight for doses of 0.001, 0.01, 0.1 or 1 mg/kg. Compounds were prepared fresh on the day of use. Statistical Analysis: To determine statistical significance between multiple control and treatment groups, data was compared using one-way ANOVA followed by a Bonferroni post-test. Results were deemed significant when p-values were less than 0.05.

[3] = tested on: spinal dorsal horn neurones in SNL rats; assay: Electrophysiology: electrically-evoked dorsal horn neural responses; details: for AB-Fiber Response, Number of Action Potentials / AD-Fiber Response, Number of Action Potentials / C-Fiber Response, Number of Action Potentials / Input Response, Number of Action Potentials / Post Discharge Response, Number of Action Potentials / Wind-up Response, Number of Action Potentials: SNL rats, mean ± S.E.
Experimental: Electrophysiology experiments were conducted on post-operative days 14-17 in anaesthetised rats.
We recorded the evoked responses of dorsal horn lamina V-VI neurones to stimulation of the peripheral receptive field with: • a train of 16 electrical pulses at 3×C-fibre threshold • mechanical von Frey filaments of increasing force—vf 2 g, 8 g, 26 g and 60 g applied to the centre of the receptive field for 10 seconds • heat—40, 45 and 48° C. applied to the centre of the receptive field by a constant water jet for 10 seconds
Following 3 stable baseline responses, 0.03 mg/kg Palonosetron and 0.10 mg/kg Netupitant were administered into the scruff of the neck by subcutaneous injection. Drug effects were followed for two hours with tests carried out at 10, 30, 50, 70, 90 and 110 minutes post injection.
Input represents the post-synaptic C-fibre-evoked dorsal horn neuronal response following the first of the 16 electrical stimuli in the electrical train. It gives a measure of resting pre-synaptic activity (taken as total neuronal responsiveness upstream of the neurone under study, therefore including afferent excitability, activity at terminals and interneurones) and transmitter release in the absence of potentiation. The baseline ‘input’ response given numerically and graphically in this and other studies, was calculated as the number of C-fibre-evoked action potentials produced by the first stimulus (i.e. initial baseline response) multiplied by the total number of stimuli. Aβ-, Aδ-, and C-fibre responses denote the number of action potentials respectively generated in the spinal cord as a consequence of Aβ-, Aδ-, and C-fibre activity following electrical stimulation of their peripheral receptive field. Our Spike 2 Data Capturing software separates out which incoming action potentials are carried by which fibre according to their latency to arrive in the spinal cord following generation (given the different conduction velocities of the fibres). Thus, those arriving within 20 ms of peripheral stimulation are attributed to Aβ-fibres, Aδ-fibres=20-90 ms, and C-fibre-evoked responses were taken as those recorded 90-300 ms after electrical stimulation. Neuronal responses that trail behind between 300-800 ms post-stimulus are quantified as post-discharge, and represent spinal cord hyperexcitability that results as a consequence of repetitive stimulation of the neurone. Activity-dependent hyperexcitability can additionally be measured as wind-up. This value is calculated as the difference between the total number of action potentials at C-fibre latency produced by the train of 16 electrical stimuli, and ‘input’ as defined and calculated above. Therefore, if the first electrical stimulus elicited 15 C-fibre-evoked action potentials, and the total number of C-fibre-evoked action potentials recorded after 16 stimuli was 350, then wind up=350−([…])=200. If each post-synaptic response was independent of previous activity, then in the example above, the cumulative number of action potentials evoked by C-fibres after the 16 electrical stimuli should theoretically be […]. However, temporal summation of action potentials, and post-synaptic hyperexcitability amplify responses, so wind-up is a measure of the additional action potentials recorded above the predicted baseline level.

Cl.O=C1c2cccc3c2[C@H](CCC3)CN1[C@@H]1CN2CCC1CC2 [Palo, (3aS)-2-[(S)-1-Azabicyclo[2.2.2]oct-3-yl]-2,3,3a,4,5,6-hexahydro-1-oxo-1Hberiz[de]isoquinoline]
motor performance, total time spent on a rotarod [1]: did not impair motor performance | inhibition of AA-induced somatic hypersensitivity, agent alone [2]: significantly inhibited | effect of 0.001 mg/kg dose alone on somatic hypersensitivity [2]: non-effective | AB-Fiber Response, Number of Action Potentials ([3]; Palo 0.03 mg/kg s.c.): 141 ± 22 | AD-Fiber Response, Number of Action Potentials ([3]; Palo 0.03 mg/kg s.c.): 192 ± 51 | C-Fiber Response, Number of Action Potentials ([3]; Palo 0.03 mg/kg s.c.): 518 ± 103 | Input Response, Number of Action Potentials ([3]; Palo 0.03 mg/kg s.c.): 461 ± 86 | Post Discharge Response, Number of Action Potentials ([3]; Palo 0.03 mg/kg s.c.): 417 ± 127 | Wind-up Response, Number of Action Potentials ([3]; Palo 0.03 mg/kg s.c.): 559 ± 192 | effect on electrophysiological measures of pain control, agent alone [3]: zero or minimal effect

Cc1ccccc1-c1cc(N2CCN(C)CC2)ncc1N(C)C(=O)C(C)(C)c1cc(C(F)(F)F)cc(C(F)(F)F)c1 [Netu, 2-[3,5-bis(trifluoromethyl)phenyl]-N,2-dimethyl-N-[4-(2-methylphenyl)-6-(4-methylpiperazin-1-yl)pyridin-3-yl]propanamide]
inhibition of AA-induced somatic hypersensitivity, agent alone [2]: significantly inhibited | effect of 0.001 mg/kg dose alone on somatic hypersensitivity [2]: non-effective | AB-Fiber Response, Number of Action Potentials ([3]; Netu 0.1 mg/kg s.c.): 135 ± 10 | AD-Fiber Response, Number of Action Potentials ([3]; Netu 0.1 mg/kg s.c.): 103 ± 13 | C-Fiber Response, Number of Action Potentials ([3]; Netu 0.1 mg/kg s.c.): 292 ± 45 | Input Response, Number of Action Potentials ([3]; Netu 0.1 mg/kg s.c.): 293 ± 46 | Post Discharge Response, Number of Action Potentials ([3]; Netu 0.1 mg/kg s.c.): 195 ± 29 | Wind-up Response, Number of Action Potentials ([3]; Netu 0.1 mg/kg s.c.): 270 ± 38 | effect on electrophysiological measures of pain control, agent alone [3]: independent effect
